In brackets after ≈: the same amount, converted by molar mass. Like-named read-outs stand apart in the source and are kept apart here.
Assays:
[1] = test system: L. donovani amastigotes; experiment: Ld InMac intramacrophage Leishmania donovani assay; assay type: cell-based; conditions: for EC50: Leishmania donovani, L. donovani amastigotes in THP-1 cells, mean of n ≥ 3, read-out: Ld InMac pEC50 (converted)
Description: (§1) For the identification of DDD853651/GSK3186899, which contained a trans-1,4-cyclohexyldiamine, a key strategy was to optimise the balance between potency in the intracellular Leishmania assay (L. donovani in THP-1 cells, referred to as Ld InMac assay[9]) and solubility.[10] In that case, we focused on 2 (Table 1), where the sulfonamide was required for potency but was poorly soluble. […] To this end, we examined a 4-aminopiperidine central unit with both sulfonamide and amide substituents (Table 1). […] We therefore selected 4 as a suitable start-point for further chemistry. […] We noted that either lengthening the linker to the aromatic ring, or removing it, led to a loss of activity (6 and 7 respectively).
(§2) Intramacrophage Leishmania donovani Assay

[2] = Aqueous solubility, values marked with ref 12; assay type: physicochemical; conditions: values marked [12] in the table (method of ref 12, not CAD)
[3] = test system: THP-1 cells; experiment: THP-1 host cell toxicity readout of the Ld InMac assay; assay type: cell-based; conditions: Homo sapiens; host THP-1 cells; mean of n ≥ 3; read-out: THP-1 pEC50 (converted)
Description: as §1, §2

[4] = test system: L. donovani; experiment: Mouse efficacy model of VL; assay type: in vivo; conditions: for % Suppression of parasite load: liver load
Method: page 37: microsomal protein yield is taken as 52.5 mg protein/g liver. Verapamil (0.5 μM) was used as a positive control to confirm acceptable assay performance. In Vivo Efficacy Studies 10 Groups of female BALB/c mice (5 per group) were inoculated intravenously with approximately […] L. donovani amastigotes (LV9; WHO designation: MHOM/ET/67/HU3) harvested from the spleen of an infected hamster. From day 7 post infection, groups of mice were treated with either drug vehicle only (orally), with control drugs Miltefosine 30 mg/kg orally and Pentostam 15 mg/kg subcutaneously (only in compound 48 efficacy experiment) or with test compound at the appropriate dose. Miltefosine and Pentostam were dosed once daily for 5 days and test compounds were dosed twice daily for 5 days. Drug dosing solutions were prepared fresh each day and the vehicle was deionized water for Miltefosine and Pentostam, or 0.5% HPMC, 0.4% Tween 80, and 0.5% benzyl alcohol for test compounds. On day 14 all animals were humanely euthanized, liver smears made, and parasite burdens determined by counting the number of amastigotes/500 liver cells. Parasite burden is expressed in Leishman−Donovan units (LDU): the number of amastigotes per 500 nucleated cells multiplied by the organ weight in milligrams. S-37

[5] = Stability in mouse liver microsomes (intrinsic clearance); assay type: in vitro ADME; conditions: mouse liver microsomal intrinsic clearance, 0.5 μM
Method: Stability in Microsomes 10
Test compound (0.5 μM) was incubated with female CD1 mouse (Xenotech) liver microsomes and their action started with addition of excess NADPH (8 mg/mL 50 mM potassium phosphate buffer, pH 7.4). Immediately, at time zero, then at 3, 6, 9, 15, and 30 min, an aliquot (50 μL) of the incubation mixture was removed and mixed with acetonitrile (100 μL) to stop the reaction.
Internal standard was added to all samples, the samples centrifuged to sediment precipitated protein, and the plates then sealed prior to UPLC-MS/MS analysis using a Xevo TQs micro (Waters Corporation, USA). XLfit (IDBS, UK) was used to calculate the exponential decay and consequently the rate constant (k) from the ratio of the peak area of test compound to internal standard at each time point. The rate of intrinsic clearance (Cl i) of each test compound was then calculated using the equation Cl i (mL/min/g liver) = k × V × microsomal protein yield, where V (mL/mg protein) is the incubation volume/mg protein added and […]
microsomal protein yield is taken as 52.5 mg protein/g liver. Verapamil (0.5 μM) was used as a positive control to confirm acceptable assay performance. […]

[6] = target: p38β MAPK (Homo sapiens, UniProt Q15759); experiment: Human kinase panel and IC50, p38β MAPK; assay type: biochemical
Description: (§3) From this, only 4 kinases were inhibited at >40% (ERK8 [extracellular signal-regulated kinases], p38α and p38β MAPK [mitogen-activated protein kinases] and CDK2 [cyclin dependant kinase]).

[7] = Rat dose-escalation PK study; assay type: in vivo
[8] = target: CDK2 (Homo sapiens, UniProt P24941); experiment: Human kinase panel, CDK2; assay type: biochemical; conditions: panel of 140 human kinases
Description: as §3

[9] = CAD kinetic aqueous solubility; assay type: physicochemical; conditions: pH 7.4, pH7.4 phosphate buffered saline
Method: CAD Aqueous Solubility 11
5µl of 10mM DMSO stock solution is diluted to 100 µ l with pH7.4 phosphate buffered saline,
equilibrated for 1 hour at room temperature and filtered through Millipore MultiscreenHTS-PCF

[10] = target: p38α MAPK (Homo sapiens, UniProt Q16539); experiment: Human kinase panel, p38α MAPK; assay type: biochemical; conditions: panel of 140 human kinases
Description: as §3

[11] = target: T1, ERK8 (Homo sapiens, UniProt Q8TD08); experiment: Human kinase panel and IC50, ERK8; assay type: biochemical
T1 sequence (Q8TD08 1-544): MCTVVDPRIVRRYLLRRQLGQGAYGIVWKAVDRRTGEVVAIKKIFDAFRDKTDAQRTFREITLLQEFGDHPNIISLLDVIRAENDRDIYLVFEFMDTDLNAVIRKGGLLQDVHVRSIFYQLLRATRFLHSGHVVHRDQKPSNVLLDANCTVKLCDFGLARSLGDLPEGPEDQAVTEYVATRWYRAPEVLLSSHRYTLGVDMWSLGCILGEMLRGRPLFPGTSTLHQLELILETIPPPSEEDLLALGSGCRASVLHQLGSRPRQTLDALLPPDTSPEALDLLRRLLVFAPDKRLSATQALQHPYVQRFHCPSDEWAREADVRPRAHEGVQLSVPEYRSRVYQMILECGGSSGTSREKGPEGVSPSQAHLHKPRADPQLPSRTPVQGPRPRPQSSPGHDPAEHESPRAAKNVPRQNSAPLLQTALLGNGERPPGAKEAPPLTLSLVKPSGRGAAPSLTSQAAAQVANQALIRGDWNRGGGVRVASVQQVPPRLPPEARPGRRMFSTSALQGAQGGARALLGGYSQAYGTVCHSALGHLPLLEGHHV
Description: as §3

[12] = Oral pharmacokinetics in Balb-c mice; assay type: in vivo; conditions: mouse, blood, female Balb-c mice, 100 mg kg^–1
Description: On this basis, 48 and 50 were progressed into orally dosed pharmacokinetic studies in female Balb-c mice (Table 6), with both having sufficient Cmax (the highest concentration of a drug in the blood) and AUC (area under the curve) to progress into the previously reported mouse efficacy model of VL.[10]

[13] = FaSSIF solubility; assay type: physicochemical; conditions: fasted state simulated intestinal fluid (FaSSIF)
[14] = 10 μM, panel of 140 human kinases
[15] = dose increased from 100 to 300 mg kg^–1

Sequence of p38β MAPK (Q15759 whole entry): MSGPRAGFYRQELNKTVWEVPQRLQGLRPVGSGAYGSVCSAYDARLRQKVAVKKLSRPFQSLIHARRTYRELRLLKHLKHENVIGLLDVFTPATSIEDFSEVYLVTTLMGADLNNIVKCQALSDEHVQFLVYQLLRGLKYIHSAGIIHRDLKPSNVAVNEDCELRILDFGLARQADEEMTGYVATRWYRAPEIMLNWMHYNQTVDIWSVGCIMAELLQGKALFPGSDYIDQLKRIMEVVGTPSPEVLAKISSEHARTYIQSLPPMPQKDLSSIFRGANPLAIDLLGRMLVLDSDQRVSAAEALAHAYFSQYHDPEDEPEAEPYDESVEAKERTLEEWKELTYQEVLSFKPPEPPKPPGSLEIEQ
Sequence of p38α MAPK (Q16539 whole entry): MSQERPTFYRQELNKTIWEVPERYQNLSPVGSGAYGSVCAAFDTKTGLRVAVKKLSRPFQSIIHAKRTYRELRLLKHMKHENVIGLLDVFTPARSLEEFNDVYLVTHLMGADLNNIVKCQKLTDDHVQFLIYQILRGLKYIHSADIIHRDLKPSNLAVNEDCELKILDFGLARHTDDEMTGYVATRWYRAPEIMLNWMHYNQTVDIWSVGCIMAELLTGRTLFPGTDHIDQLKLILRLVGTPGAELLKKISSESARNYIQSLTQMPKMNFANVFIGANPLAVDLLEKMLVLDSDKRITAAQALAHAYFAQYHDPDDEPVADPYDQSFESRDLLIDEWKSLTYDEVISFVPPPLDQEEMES

Compound: Clc1ccc(N2CCC(Nc3ncc4c(C5CCOCC5)n[nH]c4n3)CC2)nn1 [Compound 49]
- EC50 [1]: 1.58 µM
- solubility ([2]; aqueous solution): 63 µM (≈ 26.1 µg/mL)
- EC50 [3]: > 50.1 µM

Compound: O=C(Cc1ccc(F)c(F)c1)N1CCC(Nc2ncc3c(N4CCOCC4)n[nH]c3n2)CC1 [Compound 48]
- % Suppression of parasite load ([4]; 30 mg kg^–1 b.i.d. for 5 days PO): 60%
- % Suppression of parasite load ([4]; 100 mg kg^–1 b.i.d. for 5 days PO): 98%
- minimum efficacious dose ([4]; mouse model of VL): 100 mg kg^–1
- Cli mouse [5]: 1.6 ml min^–1 g^–1
- inhibition at 10 µM [6, 14]: > 40%
- IC50 ([6]; full IC50 curve): 0.55 µM
- Cmax ([7]; blood, 10 mg kg^–1): 229 ng/mL
- Tmax ([7]; blood, 10 mg kg^–1): 0.67 h
- AUC(0-t) ([7]; blood, 10 mg kg^–1, read-out: AUC (0-Tlast)): 488 ng·h/mL
- Cmax ([7]; blood, 100 mg kg^–1): 5520 ng/mL
- Tmax ([7]; blood, 100 mg kg^–1): 6 h
- AUC(0-t) ([7]; blood, 100 mg kg^–1, read-out: AUC (0-Tlast)): 50600 ng·h/mL
- Cmax ([7]; blood, 300 mg kg^–1): 6760 ng/mL
- Tmax ([7]; blood, 300 mg kg^–1): 6.67 h
- increase in AUC(0-Tlast) [7, 15]: 1.7 fold
- increase in Cmax [7, 15]: 1.2 fold
- AUC(0-t) ([7]; in vivo, 300 mg kg^–1, read-out: AUC (0-Tlast)): 84600 ng·h/mL
- EC50 [1]: 0.794 µM
- inhibition at 10 µM [8]: > 40%
- solubility at 1 h [9]: ≥ 465 µM
- inhibition at 10 µM [10]: > 40%
- inhibition at 10 µM [11, 14]: > 40%
- IC50 ([11]; full IC50 curve): 0.11 µM
- AUC [12]: 20900 ng·h/mL
- Cmax [12]: 5760 ng/mL
- Tmax [12]: 1 h
- solubility [13]: 97 µg/mL (≈ 212 µM)
- EC50 [3]: > 50.1 µM

Compound: Clc1ccc(N2CCC(Nc3ncc4c(N5CCOCC5)n[nH]c4n3)CC2)nn1 [Compound 50]
- % Suppression of parasite load ([4]; 25 mg kg^–1 b.i.d. for 5 days PO): 17%
- % Suppression of parasite load ([4]; 50 mg kg^–1 b.i.d. for 5 days PO): 57%
- Cli mouse [5]: 0.6 ml min^–1 g^–1
- EC50 [1]: 0.631 µM
- solubility ([2]; aqueous solution): 121 µM (≈ 50.3 µg/mL)
- AUC [12]: 39800 ng·h/mL
- Cmax [12]: 5230 ng/mL
- Tmax [12]: 4 h
- solubility [13]: 88 µg/mL (≈ 212 µM)
- EC50 [3]: > 50.1 µM

Compound: COc1ccccc1-c1n[nH]c2nc(NC3CCN(C(=O)Cc4ccc(F)cc4F)CC3)ncc12 [Compound 20]
- Cli mouse [5]: 5.0 ml min^–1 g^–1
- EC50 [1]: 0.0794 µM
- solubility at 1 h [9]: < 1 µM
- solubility [13]: < 1 µg/mL
- EC50 [3]: 39.8 µM

Compound: CC(C)Cc1n[nH]c2nc(NC3CCN(C(=O)Cc4ccccc4)CC3)ncc12 [Compound 4]
- Cli mouse [5]: 18 ml min^–1 g^–1
- more active than comparator compound ([1]; Ld InMac, 4 versus 3): > 10 fold
- EC50 [1]: 7.94 µM
- solubility at 1 h [9]: 59 µM (≈ 23.2 µg/mL)
- EC50 [3]: > 50.1 µM

Compound: CC(C)Cc1n[nH]c2nc(NC3CCN(C(=O)Cc4ccc(Cl)cc4Cl)CC3)ncc12 [Compound 9]
- Cli mouse [5]: 30 ml min^–1 g^–1
- EC50 [1]: 10 µM
- solubility at 1 h [9]: 26 µM (≈ 12 µg/mL)
- EC50 [3]: > 50.1 µM

Compound: CC(C)Cc1n[nH]c2nc(NC3CCN(S(=O)(=O)Cc4ccccc4)CC3)ncc12 [Compound 5]
- Cli mouse [5]: >50 ml min^–1 g^–1
- loss of potency (less active) versus comparator compound ([1]; Ld InMac, versus matched comparator): > 10 fold
- EC50 [1]: 12.6 µM
- solubility at 1 h [9]: 10 µM (≈ 4.29 µg/mL)
- EC50 [3]: > 50.1 µM

Compound: O=C(Cc1ccc(F)cc1F)N1CCC(Nc2ncc3c(N4CCOCC4)n[nH]c3n2)CC1 [Compound 15]
- Cli mouse [5]: 2 ml min^–1 g^–1
- EC50 [1]: 0.794 µM
- solubility at 1 h [9]: 14 µM (≈ 6.4 µg/mL)
- EC50 [3]: > 50.1 µM

Compound: COc1ccccc1-c1n[nH]c2nc(NC3CCN(C(=O)N4CCOCC4)CC3)ncc12 [Compound 40]
- Cli mouse [5]: 2 ml min^–1 g^–1
- EC50 [1]: 2 µM
- solubility at 1 h [9]: 79 µM (≈ 34.6 µg/mL)
- EC50 [3]: > 50.1 µM

Compound: O=C(CC1CC1)N1CCC(Nc2ncc3c(C4CCOCC4)n[nH]c3n2)CC1 [Compound 44]
- Cli mouse [5]: 0.8 ml min^–1 g^–1
- EC50 [1]: 7.94 µM
- solubility at 1 h [9]: ≥ 496 µM
- EC50 [3]: > 50.1 µM

Compound: CC(C)Cc1n[nH]c2nc(NC3CCN(C(=O)Cc4ccc(F)cc4F)CC3)ncc12 [Compound 8]
- Cli mouse [5]: 12 ml min^–1 g^–1
- EC50 [1]: 1.58 µM
- solubility at 1 h [9]: 26 µM (≈ 11.1 µg/mL)
- EC50 [3]: > 50.1 µM

Compound: COc1ccccc1-c1n[nH]c2nc(NC3CCN(C(=O)CC4CC4)CC3)ncc12 [Compound 42]
- Cli mouse [5]: 1.6 ml min^–1 g^–1
- EC50 [1]: 0.316 µM
- solubility at 1 h [9]: 22 µM (≈ 8.94 µg/mL)
- solubility [13]: < 1 µg/mL
- EC50 [3]: 39.8 µM

Compound: COc1ccccc1-c1n[nH]c2nc(NC3CCN(c4ccc(Cl)nn4)CC3)ncc12 [Compound 41]
- Cli mouse [5]: 3.4 ml min^–1 g^–1
- EC50 [1]: 0.158 µM
- solubility [2]: 4 µM (≈ 1.75 µg/mL)
- EC50 [3]: > 50.1 µM

Compound: O=C(Cc1ccc(F)cc1F)N1CCC(Nc2ncc3c(-c4ccccn4)n[nH]c3n2)CC1 [Compound 18]
- Cli mouse [5]: 6.7 ml min^–1 g^–1
- EC50 [1]: 0.794 µM
- solubility at 1 h [9]: 23 µM (≈ 10.3 µg/mL)
- EC50 [3]: > 50.1 µM
